Measurements taken from patent US11850247B2, “Antiviral compounds” (REGENTS OF THE UNIVERSITY OF MINNESOTA, priority 2020, dated 2023).

Assays:
[1] = test system: HIV-1; assay: Anti-HIV-1 activity in TZM-GFP cells (viral LTR-activated GFP expression); type: cell-based; conditions: Human immunodeficiency virus 1, HIV-1 strain MOI=1, GFP positive cells counted after 48 hours
Summary of the method: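 TZM-GFP cells treated with increasing compound for 24 h, then infected with HIV-1 (MOI=1); EC50 based on inhibition of LTR-driven GFP expression versus DMSO controls. CC50 determined by XTT after 72 h continuous exposure in the same cells; duplicate, ≥2 independent experiments, variable-slope curve fit.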

[2] = test system: TZM-GFP cells; assay: Cytotoxicity in TZM-GFP cells (XTT); type: cell-based; conditions: 50 μM compound
Summary of the method: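 TZM-GFP cells (1×10^4 per well) exposed continuously to increasing compound concentrations for 72 hours. Viable cells measured by XTT; CC50 from log(inhibitor) vs. normalized response-variable slope fit, averaged over at least two independent duplicate experiments.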

[3] = target: covalently-crosslinked hexameric CA A14C/E45C/W184A/M185A (CA121) (Human immunodeficiency virus type 1 group M subtype B, UniProt P12493, A146C/E177C/M317A/W316A); assay: Thermal shift assay (TSA), CA hexamer stability; type: binding, HIV-1; conditions: compound 20 μM, ΔTm=Tm−T0 vs DMSO
[4] = Microsomal stability assay, human liver microsomes; type: in vitro ADME; conditions: human liver microsomes, 1 μM compound, NADPH; for HLM half-life (t1/2): without Cobicistat; for half-life at 1 μM: pH 7.4, with Cobicistat 0.5 μM (CYP3A inhibitor), with 0.5 μM Cobicistat (CYP3A inhibitor), read-out: HLM (+Cobi) half-life (t1/2)
Procedure: (§1) The in vitro microsomal stability assay was conducted in duplicate in mouse and human liver microsomal systems, which were supplemented with nicotinamide adenine dinucleotide phosphate (NADPH) as a cofactor. […] The reaction was initiated by addition of 1 mM NADPH, followed by incubation at 37° C. A negative control was performed in parallel in the absence of NADPH to measure any chemical instability or non-NADPH dependent enzymatic degradation for each compound. At various time points (0, 5, 15, 30, and 60 minutes), 1 volume of reaction aliquot was taken and quenched with 3 volumes of acetonitrile containing an appropriate internal standard and 0.1% formic acid. The samples were then vortexed and centrifuged at 15,000 rpm for 5 minutes at 4° C. The supernatants were collected and analyzed by LC-MS/MS to determine the in vitro metabolic half-life (t1/2).

[5] = Microsomal stability assay, mouse liver microsomes; type: in vitro ADME; conditions: 1 μM compound, NADPH; for MLM half-life (t1/2): without Cobicistat
Procedure: as §1

[6] = with 0.5 μM Cobicistat (CYP3A inhibitor)

Structure (SMILES)	EC50 [1] [µM]	% viability at 50 μM [2] [%]	TSA ΔTm (° C.) [3] [°C]	HLM half-life (t1/2) [4] [min]	half-life at 1 μM [4] [min]	MLM (+Cobi) half-life (t1/2) [5, 6] [min]	MLM half-life (t1/2) [5] [min]	half-life at 1 μM ([5]; pH 7.4, with Cobicistat 0.5 μM (CYP3A inhibitor), with 0.5 μM Cobicistat (CYP3A inhibitor), read-out: MLM (+Cobi) half-life (t1/2)) [min]
Cc1[nH]c2ccccc2c1CC(=O)N[C@@H](Cc1ccccc1)c1ncccc1-c1ccccc1 [Example 49, (S)-2-(2-methyl-1H-indol-3-yl)-N-(2-phenyl-1-(3-phenylpyridin-2-yl)ethyl)acetamide]	2.6 ± 0.4	29 ± 12	4.5					
O=C(Cn1ncc2ccccc21)N[C@@H](Cc1ccccc1)c1ncccc1-c1ccccc1 [Example 50, (S)-2-(1H-indazol-1-yl)-N-(2-phenyl-1-(3-phenylpyridin-2-yl)ethyl)acetamide]	8.8 ± 0.4	46 ± 13	1.0					
O=C(Cn1cccn1)N[C@@H](Cc1ccccc1)c1ncccc1-c1ccccc1 [Example 51, (S)—N-(2-phenyl-1-(3-phenylpyridin-2-yl)ethyl)-2-(1H-pyrazol-1-yl)acetamide]	5.1 ± 0.7	102 ± 6	1.1					
Cc1[nH]c2ccccc2c1CC(=O)N[C@@H](Cc1ccccc1)c1nccn1-c1ccccc1 [Example 52, (S)-2-(2-methyl-1H-indol-3-yl)-N-(2-phenyl-1-(1-phenyl-1H-imidazol-2-yl)ethyl)acetamide]	3.7 ± 0.8	78 ± 6	3.9					
Cc1[nH]c2ccccc2c1CC(=O)N[C@@H](Cc1ccccc1)c1nccn1-c1ccc(C#N)cc1 [Example 53, (S)—N-(1-(1-(4-cyanophenyl)-1H-imidazol-2-yl)-2-phenylethyl)-2-(2-methyl-1H-indol-3-yl)acetamide]	6.6 ± 0.4	87 ± 8	2.2					
CN(C(=O)[C@H](Cc1ccccc1)NC(=O)CNC(=O)c1ccccc1)c1ccc(Cl)cc1 [drawing 192]				36	141	52	13	
CN(C(=O)[C@H](Cc1ccccc1)NC(=O)CNC(=O)c1ccccc1)c1cccc(F)c1 [drawing 193]				12			3.6	
CCN(C(=O)[C@H](Cc1ccccc1)NC(=O)CNC(=O)c1ccccc1)c1ccccc1 [drawing 194]				14	231	28	2.4	
Cc1cn(CC(=O)N[C@@H](Cc2ccccc2)C(=O)N(C)c2ccc(Cl)cc2)c(=O)[nH]c1=O [drawing 195]				12	1390		4.6	385
